Read-outs that look alike come from different tables or passages of the source.
How the values were obtained:
TNFα = assay: Cot Monocyte TNFα Cell Based Assay
Human Cot = Human Cot (Homo sapiens (Human), UniProt P41279); assay: High Throughput Cot Biochemical Assay
[1] = Homo sapiens, Monocyte, read-out: EC50 TNF, LPS-stimulated human monocytes, TNFα TR-FRET
[2] = IC50 HTRF, Cot HTRF (TR-FRET KinEASE) biochemical assay, 400 μM ATP
[3] = Homo sapiens, Monocyte, read-out: EC50 TNF, LPS-stimulated human monocytes, TNFα
[4] = IC50 HTRF, Cot HTRF (TR-FRET) biochemical assay

Sequence of Human Cot (P41279 30-397): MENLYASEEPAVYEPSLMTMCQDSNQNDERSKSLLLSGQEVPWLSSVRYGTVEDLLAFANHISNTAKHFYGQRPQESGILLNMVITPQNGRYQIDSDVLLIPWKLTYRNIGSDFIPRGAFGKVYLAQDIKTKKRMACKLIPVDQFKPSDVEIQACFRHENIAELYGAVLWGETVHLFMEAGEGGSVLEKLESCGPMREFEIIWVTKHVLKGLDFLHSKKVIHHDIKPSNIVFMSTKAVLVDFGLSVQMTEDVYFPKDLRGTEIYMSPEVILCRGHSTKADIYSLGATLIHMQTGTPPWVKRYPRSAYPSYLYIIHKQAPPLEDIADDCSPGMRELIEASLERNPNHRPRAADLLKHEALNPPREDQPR

Row | EC50 (TNFα; [3]) [µM] | IC50 (Human Cot; [4]) [µM] | also measured | SMILES
1 | – | – | EC50 (TNFα; [1]): 0.029 µM; IC50 (Human Cot; [2]): 0.001 µM | CC(C)(C)CNc1c(C#N)cnc2c(C#N)cc(N[C@H](c3cn(C4CC4)nn3)c3csc4cnccc34)cc12 [Example 856, (S)-6-(((1-cyclopropyl-1H-1,2,3-triazol-4-yl)(thieno[2,3-c]pyridin-3-yl)methyl)amino)-4-(neopentylamino)quinoline-3,8-dicarbonitrile]
2 | – | – | EC50 (TNFα; [1]): 0.073 µM; IC50 (Human Cot; [2]): 0.003 µM | CC(C)(C)CNc1c(C#N)cnc2c(C#N)cc(N[C@H](c3cn(C4(C(F)(F)F)CC4)nn3)c3cccc4c(=O)n(CC(F)F)ccc34)cc12 [Example 874, (S)-6-(((2-(2,2-difluoroethyl)-1-oxo-1,2-dihydroisoquinolin-5-yl)(1-(1-(trifluoromethyl)cyclopropyl)-1H-1,2,3-triazol-4-yl)methyl)amino)-4-(neopentylamino)quinoline-3,8-dicarbonitrile]
3 | 0.084 | 0.002 | – | CC(C)(C)CNc1c(C#N)cnc2c(C#N)cc(N[C@H](c3cn(C4(C#N)CC4)nn3)c3cccc4cnccc34)cc12 [Example 580, (S)-6-(((1-(1-cyanocyclopropyl)-1H-1,2,3-triazol-4-yl)(isoquinolin-5-yl)methyl)amino)-4-(neopentylamino)-quinoline-3,8-dicarbonitrile]
4 | 6.42 | 0.044 | – | Cc1ncccc1[C@H](Nc1cc(Cl)c2ncc(C#N)c(Nc3ccc(Cl)c(Cl)c3F)c2c1)c1c[nH]nn1 [Example 227, (S)-8-chloro-4-((3,4-dichloro-2-fluorophenyl)amino)-6-(((2-methylpyridin-3-yl)(1H-1,2,3-triazol-4-yl)methyl)amino)-quinoline-3-carbonitrile]
5 | 0.789 | 0.006 | – | N#Cc1cnc2c(Cl)cc(N[C@@H](c3cscn3)c3c[nH]nn3)cc2c1Nc1ccc(F)c(Cl)c1 [Example 276, (S)-8-chloro-4-((3-chloro-4-fluorophenyl)amino)-6-((thiazol-4-yl(1H-1,2,3-triazol-4-yl)methyl)amino)quinoline-3-carbonitrile]
6 | 0.381 | 0.008 | – | N#Cc1cnc2c(Cl)cc(N[C@H](c3cn(C4CC4)nn3)c3ccc(F)nc3F)cc2c1Nc1cnc(F)c(F)c1 [Example 149, (S)-8-chloro-6-(((1-cyclopropyl-1H-1,2,3-triazol-4-yl)(2,6-difluoropyridin-3-yl)methyl)amino)-4-((5,6-difluoropyridin-3-yl)amino)quinoline-3-carbonitrile]
7 | 0.026 | 0.002 | – | Cc1nc(F)ccc1[C@H](Nc1cc(C#N)c2ncc(C#N)c(NCC(C)(C)C)c2c1)c1nnn(C2CC2)c1F [Example 681, (S)-6-(((1-cyclopropyl-5-fluoro-1H-1,2,3-triazol-4-yl)(6-fluoro-2-methylpyridin-3-yl)methyl)amino)-4-(neopentylamino)quinoline-3,8-dicarbonitrile]
8 | 0.689 | 0.019 | – | CN1Cc2cccc([C@H](Nc3cc(Cl)c4ncc(C#N)c(NCC(C)(C)C)c4c3)c3cn(C4(C(F)F)CC4)nn3)c2C1=O [Example 498, (S)-8-chloro-6-(((1-(1-(difluoromethyl)-cyclopropyl)-1H-1,2,3-triazol-4-yl)(2-methyl-3-oxoisoindolin-4-yl)methyl)-amino)-4-(neopentylamino)quinoline-3-carbonitrile]
9 | – | – | EC50 (TNFα; [1]): 1 µM; IC50 (Human Cot; [2]): 0.484 µM | CC(C)(C)CNc1c(C#N)cnc2c(C#N)cc(N[C@H](c3cn(C45CC(C4)C5)nn3)c3cccc4nc(C(F)F)ccc34)cc12 [Example 901, (S)-6-(((1-(bicyclo[1.1.1]pentan-1-yl)-1H-1,2,3-triazol-4-yl)(2-(difluoromethyl)quinolin-5-yl)methyl)amino)-4-(neopentylamino)quinoline-3,8-dicarbonitrile]
10 | 0.332 | 0.003 | – | CC(C)(C)CNc1c(C#N)cnc2c(Br)cc(N[C@H](c3cn(C4CC4)nn3)c3cccc4c3C(=O)NC4)cc12 [Example 78, (S)-8-bromo-6-(((1-cyclopropyl-1H-1,2,3-triazol-4-yl)(3-oxoisoindolin-4-yl)methyl)amino)-4-(neopentylamino)quinoline-3-carbonitrile]
11 | 0.125 | 0.002 | – | Cc1ncccc1[C@H](Nc1cc(Cl)c2ncc(C#N)c(Nc3cccc(Cl)c3F)c2c1)c1cn(C(C)C)nn1 [Example 245, (S)-8-chloro-4-((3-chloro-2-fluorophenyl)amino)-6-(((1-isopropyl-1H-1,2,3-triazol-4-yl)(2-methylpyridin-3-yl)methyl)amino)quinoline-3-carbonitrile]
12 | 0.109 | 0.005 | – | CC(C)(C)CNc1c(C#N)cnc2c(Cl)cc(N[C@H](c3cn(C4(C(F)F)CC4)nn3)c3cccn4nccc34)cc12 [Example 538, (S)-8-chloro-6-(((1-(1-(difluoromethyl)-cyclopropyl)-1H-1,2,3-triazol-4-yl)(pyrazolo[1,5-a]pyridin-4-yl)methyl)amino)-4-(neopentylamino)-quinoline-3-carbonitrile]
13 | 0.843 | 0.089 | – | Cc1nc(F)ccc1[C@H](Nc1cc(Cl)c2ncc(C#N)c(NCC3(C)COC3)c2c1)c1cn(C2(C(F)(F)F)CC2)nn1 [Example 792, (S)-8-chloro-6-(((6-fluoro-2-methylpyridin-3-yl)(1-(1-(trifluoromethyl)-cyclopropyl)-1H-1,2,3-triazol-4-yl)methyl)amino)-4-(((3-methyloxetan-3-yl)methyl)amino)quinoline-3-carbonitrile]
14 | – | – | EC50 (TNFα; [1]): 0.052 µM; IC50 (Human Cot; [2]): 0.004 µM | Cc1nc(F)ccc1[C@H](Nc1cc(C#N)c2ncc(C#N)c(NCC(C)(C)C)c2c1)c1cn(CC(C)(F)F)nn1 [Example 836, (S)-6-(((1-(2,2-difluoropropyl)-1H-1,2,3-triazol-4-yl)(6-fluoro-2-methylpyridin-3-yl)methyl)amino)-4-(neopentylamino)quinoline-3,8-dicarbonitrile]
15 | 0.645 | 0.117 | – | Cn1ccc2c([C@H](Nc3cc(Cl)c4ncc(C#N)c(NCC(C)(C)C)c4c3)c3cn(C4(C(F)F)CC4)nn3)cccc21 [Example 736, (S)-8-chloro-6-(((1-(1-(difluoromethyl)cyclopropyl)-1H-1,2,3-triazol-4-yl)(1-methyl-1H-indol-4-yl)methyl)amino)-4-(neopentylamino)quinoline-3-carbonitrile]
16 | – | – | EC50 (TNFα; read-out: EC50 TNF, LPS-stimulated human monocytes, TNFα): 0.042 µM; IC50 (Human Cot; read-out: IC50 HTRF, Cot HTRF (TR-FRET) biochemical assay): 0.002 µM | Cn1nnc2cccc([C@H](Nc3cc(C#N)c4ncc(C#N)c(NCC(C)(C)C)c4c3)c3cn(C4(C(F)F)CC4)nn3)c21 [Example 559, (S)-6-(((4-(1-1-(difluoromethyl)cyclopropyl)-1H-1,2,3-triazol-4-yl)(1-methyl-1H-benzo[d] [1,2,3]triazol-7-yl)methyl)amino)-4-(neopentylamino)quinoline-3,8-dicarbonitrile]
17 | 0.084 | 0.003 | – | Cn1nccc1[C@H](Nc1cc(Cl)c2ncc(C#N)c(Nc3ccc(F)c(Cl)c3)c2c1)c1cn(C2CCN(C(C)(C)C)CC2)nn1 [Example 305, (S)-6-(((1-(1-(tert-butyl)piperidin-4-yl)-1H-1,2,3-triazol-4-yl)(1-methyl-1H-pyrazol-5-yl)methyl)amino)-8-chloro-4-((3-chloro-4-fluorophenyl)amino)quinoline-3-carbonitrile]
18 | 0.293 | 0.004 | – | CC(C)(C)CNc1c(C#N)cnc2c(Cl)cc(N[C@H](c3cn(C4(C(F)(F)F)CC4)nn3)c3cccc4c(=O)n(CC(F)(F)F)ccc34)cc12 [Example 771, (S)-8-chloro-4-(neopentylamino)-6-(((1-oxo-2-(2,2,2-trifluoroethyl)-1,2-dihydroisoquinolin-5-yl)(1-(1-(trifluoromethyl)-cyclopropyl)-1H-1,2,3-triazol-4-yl)methyl)amino)quinoline-3-carbonitrile]
19 | 0.029 | 0.002 | – | CC(C)(C)CNc1c(C#N)cnc2c(C#N)cc(N[C@H](c3cn(C4(C(F)F)CC4)nn3)c3cccc4ncccc34)cc12 [Example 550, (S)-6-(((1-(1-(difluoromethyl)cyclopropyl)-1H-1,2,3-triazol-4-yl)(quinolin-5-yl)methyl)amino)-4-(neopentylamino)-quinoline-3,8-dicarbonitrile]
20 | 6.62 | 0.118 | – | CC(C)(O)[C@@H](Nc1c(C#N)cnc2c(Cl)cc(N[C@@H](c3cccnc3)c3c[nH]nn3)cc12)c1ccccc1 [Example 186, 8-chloro-4-(((S)-2-hydroxy-2-methyl-1-phenylpropyl)amino)-6-(((S)-pyridin-3-yl(1H-1,2,3-triazol-4-yl)methyl)amino)quinoline-3-carbonitrile]
21 | – | – | EC50 (TNFα; [1]): 0.03 µM; IC50 (Human Cot; [2]): 0.003 µM | Cc1ccc2c([C@H](Nc3cc(C#N)c4ncc(C#N)c(NCC(C)(C)C)c4c3)c3cn(C45CC(C4)C5)nn3)cccc2n1 [Example 900, (S)-6-(((1-(bicyclo[1.1.1]pentan-1-yl)-1H-1,2,3-triazol-4-yl)(2-methylquinolin-5-yl)methyl)amino)-4-(neopentylamino)quinoline-3,8-dicarbonitrile]
22 | 0.398 | 0.004 | – | Cc1ncccc1[C@H](Nc1cc(Cl)c2ncc(C#N)c(Nc3cccc(Cl)c3F)c2c1)c1c[nH]nn1 [Example 248, (S)-8-chloro-4-((3-chloro-2-fluorophenyl)amino)-6-(((2-methylpyridin-3-yl)(1H-1,2,3-triazol-4-yl)methyl)amino)-quinoline-3-carbonitrile]
23 | 0.183 | 0.003 | – | [2H][C@](Nc1cc(Cl)c2ncc(C#N)c(Nc3cnc(F)c(F)c3)c2c1)(c1ccc(F)nc1)c1cn(C2CC2)nn1 [Example 140, (S)-8-chloro-6-(((1-cyclopropyl-1H-1,2,3-triazol-4-yl)(6-fluoropyridin-3-yl)methyl-d)amino)-4-((5,6-difluoropyridin-3-yl)amino)quinoline-3-carbonitrile]

Reference: patent US11066414B2, “Cot modulators and methods of use thereof” (Gilead Sciences, Inc., priority 2015, dated 2021)
